We go through 1 compound from article PMC12495443, “Developing inhibitors of the guanosine triphosphate hydrolysis accelerating activity of Regulator of G protein Signaling-14 [drawing 1]” (The Journal of Biological Chemistry, 2025).

For experiment [1], the target named is T1, cysteine-less RGS14 RGS-box protein (Homo sapiens, UniProt O43566, C100S/C183S).
T1 construct: human RGS14 RGS-box (aa 46–195 of UniProt O43566); host or cells: E. coli
T1 sequence (O43566 46-195 C100S/C183S): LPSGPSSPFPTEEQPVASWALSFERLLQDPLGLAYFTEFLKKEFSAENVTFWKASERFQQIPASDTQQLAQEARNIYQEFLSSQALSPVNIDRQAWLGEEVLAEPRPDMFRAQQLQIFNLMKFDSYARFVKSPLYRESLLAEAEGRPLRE
Briefly: Transcreener GDP RGScreen assay with cysteine-less RGS14 RGS-box. The format is biochemical. The following applies: range given jointly for cysteine-less RGS14 and RGS12 proteins; read-out: estimated IC50, cysteine-less RGS14 RGS-box. An excerpt: Given the earlier experience with screening hit CCG-4986 being a covalent modifier of RGS4 cysteine residues ([35]), we sought to exclude protein-thiol reactivity as a potential mechanism of action of the active compounds derived from the AtomNet virtual screening effort ([55]) and SAR campaign follow-ups. To address this possibility and screen out thiol-reactive hits, cysteine-lacking versions of recombinant proteins spanning the RGS-boxes of RGS14 and RGS12 were purified from E. coli cultures.
Reagents and protocols for the fluorescence anisotropy-based Transcreener GDP RGScreen assay using a rate-altered, double point-mutant, recombinant Gαi1 protein have been extensively described previously ([43], [44]); reactions were always performed so that total GTP converted over the time course was consistently less than 10% of reaction maximum input. Specific methods for its application in assessing RGS14 and RGS12 GAP activity are summarized as follows. Open-reading frames (ORFs) encoding wild-type versions of the human RGS14 RGS-box (aa 46–195 of UniProt O43566) and human RGS12 RGS-box (aa 695–843 of UniProt O14924) were each sub-cloned in-frame with an N-terminal hexahistidine (His6) expression tag in the plasmid pET30a, expressed in E. coli cultures, and then purified by nickel-nitriloacetate (Ni-NTA) and size-exclusion (Superdex 200) column chromatographies by GenScript using previously described methods ([35]). […]
Supplementary Figure S5. […] (A,B) Recombinant, cysteine residue-lacking (“-cys”) RGS14 RGS-box protein (panel A) and cysteine residue-lacking RGS12 RGS-box protein ([…]) were both observed, in a concentration-dependent fashion (indicated in ng/µL by color), to increase steady-state GDP production by 0.5 ng/µL Gai1(DM) protein in a 20 µL final reaction volume, as measured by the Transcreener® GDP-detection RGScreen™ assay and detected by the change in polarization (ΔmP) at each indicated time point (“enz” = Gai1(DM) protein a.k.a. […]

Experiment [2] has as its target T2, human RGS14 RGS-box (wild-type) (Homo sapiens, UniProt O43566).
T2 construct: human RGS14 RGS-box (aa 46–195 of UniProt O43566); host or cells: E. coli
T2 sequence (O43566 46-195): T1 sequence (O43566 46-195 C100S/C183S) with S55C, S138C
The experiment can be described thus: Transcreener GDP RGScreen fluorescence polarization assay of RGS14 RGS-box GAP activity on Gαi1(DM). The experiment is classed as biochemical. Put shortly:
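Steady-state GTP hydrolysis by rate-altered double point-mutant Gαi1 was read by Transcreener GDP fluorescence polarization, with GTP conversion kept below 10% of maximum input. The E. coli-expressed, N-terminal His6-tagged wild-type RGS-boxes were RGS12 aa 695–843 and RGS14 aa 46–195.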
On the technique in general: In fluorescence polarisation assays a small probe gives low polarisation when free and higher when bound to something large.

Substitutions are numbered along the chain they refer to.

Take `COc1ccc(OCc2nnc3n2N=C(c2ccc(OC)c(OC)c2)CS3)cc1` [Z55660043, 6-(3,4-dimethoxyphenyl)-3-[(4-methoxy-phenoxy)methyl]-5H-[1,2,4]triazolo[3,4-b][1,3,4]thiadiazine]: the IC50 in experiment [1] was 10 to 19 µM; in experiment [2] (wild-type RGS14 RGS-box GAP activity, Gαi1(DM), Transcreener GDP RGScreen, read-out: RGS14 pIC50 (converted)), 2.29 µM. In experiment [2] (values > 1.0 reflect RGS14 selectivity), the “Ratio (RGS14 pIC50 / RGS12 pIC50)” value is 0.95.
